Tests used:
[1] = test system: A549 lung adenocarcinoma cells; test: A549 cell proliferation / growth inhibition; format: cell-based, human; details: for Selected from primary screen for growth inhibition of A549 cells at 50 μM: 50 μM compound, 1 mM glucose; for Selected for having an IC50 ratio (10 mM glucose: 1 mM glucose) of A549 growth higher than WBC-A: IC50 on 10 mM vs 1 mM glucose, compared with WBC-A
Method in brief: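 A549 growth screened in RPMI with 1 mM glucose, compounds at 50 μM; cell number from counts of Hoechst-stained nuclei after 3 days. Growth curves also followed by IncuCyte phase-contrast confluency over 3–5 days (1000–1500 cells/well), DMSO ≤0.1%, ≥4 technical repeats.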

tps1Δ cells = test: Growth rescue of tps1Δ strain on glucose (growth curves, 2% galactose medium); format: cell-based, S. cerevisiae; details: 100 μM compound, 2.5 mM glucose
Method in brief: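 tps1Δ yeast pregrown in Complete Synthetic medium with 2% galactose, washed, resuspended to OD 0.1; compounds added 10 min before glucose. Growth followed as OD595 every 30 min at 30 °C in at least three technical replicates.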

SMILES	Selected from primary screen for growth inhibition of A549 cells at 50 μM [1]	Selected for having an IC50 ratio (10 mM glucose: 1 mM glucose) of A549 growth higher than WBC-A [1]	Rescue of the tps1Δ strain on 2.5 mM glucose at 100 μM (tps1Δ cells)
Nc1nc(CSc2nnc3n2CCCCC3)nc2sc3c(c12)CCCCC3 [35A]	Yes	Lower IC50 ratio	No
Cc1nc(Sc2nnnn2C2CC2)c2c(-c3cccs3)csc2n1 [44C]	Yes	Lower IC50 ratio	No
Cc1ccc(-c2csc3ncnc(SCC(=O)N(C)Cc4ccco4)c23)cc1 [20B]	Yes	Lower IC50 ratio	No
Cc1nc(Sc2nnnn2C)c2c(-c3cccs3)csc2n1 [39A]	Yes	Lower IC50 ratio	No
Cc1ccc(-c2csc3nc(CSc4nnc5n4CCCCC5)[nH]c(=O)c23)s1 [4A]	No	–	No
Cc1nc(Sc2nnc(-c3ccco3)n2C)c2c(-c3cccs3)csc2n1 [25A]	No	–	No
Cc1nc(Sc2nnc3ccccn23)c2c(-c3cccs3)csc2n1 [30A]	No	–	No
Cc1nc(SCC(N)=O)c2c(-c3cccs3)csc2n1 [14A]	No	–	Yes
Cc1nnc(Sc2ncnc3scc(-c4ccccc4)c23)n1C [19A]	No	–	No
CCCn1c(Sc2nc(C)nc3scc(-c4cccs4)c23)nnc1-c1ccncc1 [34C]	Yes	Lower IC50 ratio	No
Cn1nnnc1Sc1ncnc2scc(-c3ccc(Cl)cc3)c12 [48A]	Yes	Lower IC50 ratio	No
Cc1nc(SCC(=O)N2CCOCC2)c2ccsc2n1 [78C]	No	–	No
Cc1nnc(SCC(=O)NC(C)(C)C)c2c1cnn2-c1ccccc1 [75C]	No	–	No
Cc1nc(NC2CCC(O)CC2)c2c(-c3cccs3)csc2n1 (stereo not drawn) [42B]	No	–	No
CCN(CC)CCSc1nc(C)nc2sc3c(c12)CCC3 [33C]	Yes	Lower IC50 ratio	No
Cc1nc(SCC(=O)N2CCOCC2)c2c(C)c(C)sc2n1 [47C]	No	–	No
Cc1nc(SCC(=O)NCC(F)(F)F)c2c(-c3cccs3)csc2n1 [31B]	No	–	No
Cc1nc(SCC(=O)N(C)CCC#N)c2c(-c3cccs3)csc2n1 [7B]	No	–	Yes
Cc1nnc(SCC(=O)NCc2ccco2)c2c1cnn2-c1ccccc1 [71C]	No	–	No
CCN(CC)Cc1nc(Sc2nnc(C3CC3)n2CCC(N)=O)c2c(C)c(C)sc2n1 [66A]	No	–	No
Cc1nnc(Sc2nc(-c3cccs3)nc3scc(-c4ccccc4)c23)n1N [8A]	No	–	No
COCCCNC(=O)CSc1nc(C)nc2scc(-c3cccs3)c12 [15B]	No	–	Yes

SMILES	Selected from primary screen for growth inhibition of A549 cells at 50 μM [1]	Selected for having an IC50 ratio (10 mM glucose: 1 mM glucose) of A549 growth higher than WBC-A [1]	Rescue of the tps1Δ strain on 2.5 mM glucose at 100 μM (tps1Δ cells)
Cc1nc(SCC(=O)NC(=O)NCc2ccco2)c2cc(-c3ccccc3)sc2n1 [40B]	Yes	Lower IC50 ratio	No
Cc1nc(Sc2nnc(-c3cccnc3)n2C)c2c(-c3cccs3)csc2n1 [23A]	Yes	Lower IC50 ratio	Yes
Cc1nc(SC(C(=O)NC(N)=O)C(C)C)c2c(-c3cccs3)csc2n1 (stereo not drawn) [34B]	No	–	No
Cc1nc(N2CCC3(CC2)OCCO3)c2c(-c3cccs3)csc2n1 [47B]	Yes	Lower IC50 ratio	No
Cc1nnc(Sc2nc(CN3CCOCC3)nc3scc(-c4cccs4)c23)n1C [6C]	Yes	Lower IC50 ratio	No
Cc1ccc(-c2csc3ncnc(Sc4ncccn4)c23)cc1 [50A]	No	–	No
c1cnc(Sc2nc(CN3CCOCC3)nc3scc(-c4cccs4)c23)nc1 [1C]	Yes	Lower IC50 ratio	No
CCc1nc(SCC(=O)OC)c2c3c(sc2n1)COC(C)(C)C3 [79C]	No	–	No
COc1ccccc1-n1ncc2c(C)nnc(SCC(=O)N3CCOCC3)c21 [77C]	No	–	No
Cc1nc(SCC(=O)N(C)Cc2ccco2)c2c(-c3cccs3)csc2n1 [27B]	No	–	No
Cn1ccnc1Sc1nc(CN2CCOCC2)nc2scc(-c3cccs3)c12 [3C]	No	–	No
COc1ccc(OC)c(NC(=O)CSc2nc(C)nc3scc(-c4cccs4)c23)c1 [21B]	No	–	No
Cc1nc(N2CCCC(c3nncn3C)C2)c2c(-c3cccs3)csc2n1 (stereo not drawn) [38A]	No	–	No
Cc1nc(SCCO)c2c3c(sc2n1)CCCC3 [22C]	No	–	No
CCN(C(=O)CSc1nc(C)nc2scc(-c3cccs3)c12)C1CCS(=O)(=O)C1 (stereo not drawn) [2C]	Yes	Lower IC50 ratio	Yes
c1csc(-c2csc3nc(CN4CCOCC4)nc(Sc4nnc[nH]4)c23)c1 [55A]	No	–	Yes
COC(=O)CSc1nc(CN2CCOCC2)nc2scc(-c3cccs3)c12 [37B]	No	–	No
COC(=O)CSc1ncnc2scc(-c3ccccc3)c12 [86C]	No	–	No
COc1ccc(-c2csc3nc(C)nc(Sc4nnc(C)n4C)c23)cc1OC [5A]	No	–	No
Cc1nc(N2CCNC(=O)C2)c2c(-c3cccs3)csc2n1 [3B]	No	–	No
Cc1nc(SCC(=O)Nc2c(Cl)cccc2C(F)(F)F)c2c(-c3cccs3)csc2n1 [19C]	No	–	No
